Assay results as given in US11865126B2, “Method for treating anxiety disorders, headache disorders, and eating disorders with psilocybin” (priority 2019, dated 2024).

Tests used:
healthy subjects [1] = test: Toronto Empathy Questionnaire (TEQ); assay type: in vivo, human
Description: In some embodiments, the Toronto Empathy Questionnaire (TEQ) is utilized to evaluate the safety and/or efficacy of psilocybin. The TEQ represents empathy as a primarily emotional process. […] The TEQ is a brief, reliable and valid instrument for the assessment of empathy. In some embodiments, after treating according to the methods of the disclosure, a subject's TEQ score increases by about 5%, about 10%, about 15%, about 20%, about 25%, about 30%, about 35%, about 40%, about 45%, about 50%, about 55%, about 60%, about 65%, about 70%, about 75%, about 80%, about 85%, about 90%, about 95%, or about 100%, about 110%, about 120%, about 130%, about 140%, about 150%, about 160%, about 170%, about 180%, about 190%, about 200%, about 210%, about 220%, about 230%, about 240%, about 250%, about 260%, about 270%, about 280%, about 290%, or about 300%, or more, compared to prior to treatment.
The following list of outcome measures are non-exhaustive. • a. The short-term change from Baseline (Day −1 [Visit 2]) to Day 7 (Visit 5) in cognitive measures of attention, spatial and working memory and executive function was measured by a composite score of the CANTAB Panel (Spatial Working Memory [SWM], Rapid Visual Information Processing [RVP], Paired Associates Learning [PAL]). • b. The short-term change from Baseline (Day −1 [Visit 2]) to Day 7 (Visit 5) in Social Cognition Panel scales (Pictorial Empathy Test [PET], Reading the Mind in the Eyes Test [RMET], Toronto Empathy Questionnaire [TEQ], Social Value Orientation [SVO], Scale of Social Responsibility [SSR]). • c. The change from Baseline (Day −1 [Visit 2]) to Day 28 (Visit 6) in cognitive measures of attention, spatial and working memory and executive function as measured by a composite score of the CANTAB Panel (SWM, RVP, PAL). • d. The long-term change from Baseline (Day −1 [Visit 2]) to Day 84 (Visit 7) in Social Cognition Panel scales (PET, RMET, TEQ, SVO, SSR). • e. Dose-related differences between cognitive effects of psilocybin at Baseline (Day −1 [Visit 2]), Day 7 (Visit 5) and Day 28 (Visit 6), as measured by a composite score of the CANTAB Panel (SWM, RVP, PAL). • f. Dose-related differences between psychological effects of psilocybin at Baseline (Day −1 [Visit 2]), Day 7 (Visit 5) and Day 84 (Visit 7), as measured by Social Cognition Panel scales (PET, RMET, TEQ, SVO, SSR). • g. Differences in cognitive effects of psilocybin between psilocybin-naïve and experienced subjects at Baseline (Day −1 [Visit 2]), Day 7 (Visit 5) and Day 28 (Visit 6), as measured by a composite score of the CANTAB Panel (SWM, RVP, PAL). • h. Differences in Positive and Negative Affect Schedule (PANAS) after study drug administration on Day 0 (Visit 3). • i. Differences between psilocybin and placebo in the Emotion Recognition Test (ERT), Intra-Extra Dimensional Set Shift (IED), One Touch Stockings (OTS), Verbal Fluency and Digit Span Forward at Day 7 (Visit 5). • j. A composite score of the CANTAB Panel, including the following tests: • i. Spatial Working Memory (SWM) (performed at Visit 2, Visit 5, and Visit 6). • ii. Rapid Visual Information Processing (RVP) (performed at Visit 2, Visit 5, and Visit 6). • iii. Paired Associates Learning (PAL) (performed at Visit 2, Visit 5, and Visit 6). • k. Cognitive Flexibility Panel • i. Emotion Recognition Task (ERT) (performed at Visit 5). • ii. Intra-Extra Dimensional Set Shift (IED) (performed at Visit 5). • iii. One Touch Stockings (OTS) (performed at Visit 5). • iv. Verbal Fluency (performed at Visit 5). • v. Digit Span Forward (performed at Visit 5). • l. Five Dimension Altered States of Consciousness questionnaire (5D-ASC) (performed at Visit 3). • m. PANAS (performed at Visit 2 and Visit 3). • n. NEO-Five Factor Inventory (NEO-FFI) (performed at Visit 2, Visit 5, and Visit 7). • o. Symptom Checklist-90 item (SCL-90) (performed at Visit 2, Visit 5, and Visit 7). • p. […]

healthy subjects [2] = test: NEO-Five Factor Inventory (NEO-FFI); assay type: in vivo, human
Method: In some embodiments, the NEO-Five Factor Inventory (NEO-FFI) test is used to evaluate the safety and/or efficacy of psilocybin. The NEO-FFI evaluates 5 broad domains of personality—Neuroticism, Extroversion, Openness, Agreeableness and Conscientiousness.
The Neuroticism Extraversion Openness-Five Factor Inventory (NEO-FFI) and Symptom Checklist-90 Item (SCL-90) were administered. Details of the MMRM applied to the change from baseline scores for the NEO-FFI and SCL-90 are provided below in Table 28.

female Wistar rats = test: Binge eating model: chow, chocolate and total food intake; conditions: across the whole study

CN(C)CCc1c[nH]c2cccc(OP(=O)(O)O)c12 [psilocybin]
TEQ change from baseline, LS mean difference Psilocybin 10 mg - Placebo (healthy subjects [1]; Day 7, MMRM): 0.1
TEQ change from baseline, LS mean difference Psilocybin 25 mg - Placebo (healthy subjects [1]; Day 7, MMRM): 0.2
TEQ change from baseline, LS mean difference Psilocybin 25 mg-10 mg (healthy subjects [1]; Day 7, MMRM): 0.1
TEQ change from baseline, LS mean difference Psilocybin 10 mg - Placebo (healthy subjects [1]; Day 84, MMRM): 0.1
TEQ change from baseline, LS mean difference Psilocybin 25 mg - Placebo (healthy subjects [1]; Day 84, MMRM): 0.1
TEQ change from baseline, LS mean difference Psilocybin 25 mg-10 mg (healthy subjects [1]; Day 84, MMRM): 0.0
TEQ change from baseline, LS mean (healthy subjects [1]; Psilocybin 10 mg, Day 84, MMRM): −0.1
TEQ change from baseline, LS mean (healthy subjects [1]; Psilocybin 25 mg, Day 84, MMRM): −0.0
NEO agreeableness change from baseline, difference Psilocybin 10 mg - Placebo (healthy subjects [2]; Day 7): −0.4
NEO agreeableness change from baseline, difference Psilocybin 25 mg - Placebo (healthy subjects [2]; Day 7): −0.1
NEO agreeableness change from baseline, difference Psilocybin (25 mg-10 mg) (healthy subjects [2]; Day 7): 0.4
NEO conscientiousness change from baseline, difference Psilocybin 10 mg - Placebo (healthy subjects [2]; Day 7): 0.4
NEO conscientiousness change from baseline, difference Psilocybin 25 mg - Placebo (healthy subjects [2]; Day 7): 0.7
NEO conscientiousness change from baseline, difference Psilocybin (25 mg-10 mg) (healthy subjects [2]; Day 7): 0.3
NEO extraversion change from baseline, difference Psilocybin 10 mg - Placebo (healthy subjects [2]; Day 7): 0.4
NEO extraversion change from baseline, difference Psilocybin 25 mg - Placebo (healthy subjects [2]; Day 7): 0.5
NEO extraversion change from baseline, difference Psilocybin (25 mg-10 mg) (healthy subjects [2]; Day 7): 0.1
NEO neuroticism change from baseline, difference Psilocybin 10 mg - Placebo (healthy subjects [2]; Day 7): −0.2
NEO neuroticism change from baseline, difference Psilocybin 25 mg - Placebo (healthy subjects [2]; Day 7): 0.2
NEO neuroticism change from baseline, difference Psilocybin (25 mg-10 mg) (healthy subjects [2]; Day 7): −0.0
NEO openness change from baseline, difference Psilocybin 10 mg - Placebo (healthy subjects [2]; Day 7): 1.1
NEO openness change from baseline, difference Psilocybin 25 mg - Placebo (healthy subjects [2]; Day 7): 1.2
NEO openness change from baseline, difference Psilocybin (25 mg-10 mg) (healthy subjects [2]; Day 7): 0.1
NEO agreeableness change from baseline, difference Psilocybin 10 mg - Placebo (healthy subjects [2]; Day 84): −0.8
NEO agreeableness change from baseline, difference Psilocybin 25 mg - Placebo (healthy subjects [2]; Day 84): −0.7
NEO agreeableness change from baseline, difference Psilocybin (25 mg-10 mg) (healthy subjects [2]; Day 84): 0.1
NEO conscientiousness change from baseline, difference Psilocybin 10 mg - Placebo (healthy subjects [2]; Day 84): 0.2
NEO conscientiousness change from baseline, difference Psilocybin 25 mg - Placebo (healthy subjects [2]; Day 84): 1.4
NEO conscientiousness change from baseline, difference Psilocybin (25 mg-10 mg) (healthy subjects [2]; Day 84): 1.2
NEO extraversion change from baseline, difference Psilocybin 10 mg - Placebo (healthy subjects [2]; Day 84): −0.7
NEO extraversion change from baseline, difference Psilocybin 25 mg - Placebo (healthy subjects [2]; Day 84): −0.5
NEO extraversion change from baseline, difference Psilocybin (25 mg-10 mg) (healthy subjects [2]; Day 84): 0.2
NEO neuroticism change from baseline, difference Psilocybin 10 mg - Placebo (healthy subjects [2]; Day 84): 0.3
NEO neuroticism change from baseline, difference Psilocybin 25 mg - Placebo (healthy subjects [2]; Day 84): −1.0
NEO neuroticism change from baseline, difference Psilocybin (25 mg-10 mg) (healthy subjects [2]; Day 84): −1.3
NEO openness change from baseline, difference Psilocybin 10 mg - Placebo (healthy subjects [2]; Day 84): 1.1
NEO openness change from baseline, difference Psilocybin 25 mg - Placebo (healthy subjects [2]; Day 84): 0.4
NEO openness change from baseline, difference Psilocybin (25 mg-10 mg) (healthy subjects [2]; Day 84): −0.7
Food intake over the 24 hour period (normal feeding behaviour) (female Wistar rats): not significantly altered
